# Data published in paper PMC2877875, “Characterisation of the bifunctional dihydrofolate synthase–folylpolyglutamate synthase from Plasmodium falciparum; a potential novel target for antimalarial antifolate inhibition” (Molecular and Biochemical Parasitology, 2010).
# Entries after “also recorded” stand apart in the source; their conditions may differ. Like-named read-outs stand apart in the source and are kept apart here.
# How the values were obtained:
# [1] = biological target: PfDHFS–FPGS (DHFS activity) (Plasmodium falciparum, UniProt Q8IE69); experiment: DHFS assay of recombinant PfDHFS–FPGS ([14C]glutamate incorporation); assay type: biochemical; details: for Km: low co-substrate concentrations (ATP or glutamate ≤25 μM), Michaelis–Menten fit, read-out: apparent Km, DHFS activity
# Protocol: (§1) A standard reaction mix based on those established for bacterial and eukaryotic DHFS/FPGS assays was adopted [[28,36,37]] and contained 10 mM MgCl2, 5 mM DTT, 200 mM KCl, 100 mM Tris, 50 mM glycine, 1 mg/ml BSA, 45 μg/ml DHFS–FPGS protein (0.72 μM), pH 10. […] The enzyme reactions were carried out at 37 °C for 60 min in triplicate and stopped by transferring reaction tubes into an ice-cold water bath. Reaction mixes were then spotted onto DE81 ion-exchange paper (pre-treated with 0.5 M EDTA, pH 8.0 and then dried), air dried and the unreacted label washed away with 125 ml of 40 mM NaCl, 10 mM Tris–HCl, pH 8.0, four times, 20 min each wash. The filter was then exposed to a storage phosphor screen overnight and the screen scanned with a quantitative imager (Typhoon Trio Variable Mode Imager, GE Healthcare, UK). The measured counts were converted to concentrations by comparison with a standard curve derived from known amounts of the radiolabelled L-glutamate subsequently used as substrate in the assays. The enzyme activity data was analysed using the Matlab software package. Regression curves were fitted using the least squares routine.
# [2] = biological target: PfDHFS–FPGS (FPGS activity) (Plasmodium falciparum, UniProt Q8IE69); experiment: biochemical; assay type: biochemical
# Protocol: as §1
# [3] = test system: P. falciparum FCB strain; experiment: Metabolic labelling of parasite cultures with 3H-folinic acid and 3H-methotrexate, HPLC analysis; assay type: cell-based, Plasmodium falciparum; details: for conversion to polyglutamylated forms in parasite cultures: 3H label 0.5 μCi/ml, ring-stage culture, 20 h incubation, HPLC
# Protocol: 0.5 μCi/ml of either ^3H-folinic acid or ^3H-methotrexate at the same specific activity was used to label parallel 50 ml synchronous cultures of P. falciparum FCB strain. Label was incubated with ring-stage (6–10 h) parasites, which were harvested at the late trophozoite stage 20 h later. The labelled products were extracted by the boiling method and analysed using HPLC on a C18 column eluted with an acetonitrile gradient as described.
# [4] = test system: bacterial DHFS; details: cited from earlier work
# [5] = test system: P. falciparum cultures; experiment: Growth of P. falciparum cultures (dose–response); assay type: cell-based, Plasmodium falciparum
# [6] = test system: bacterial and mammalian FPGS; details: read-out: Km with bacterial and mammalian FPGS; cited from earlier work
# [7] = substrate: N[C@@H](CCC(=O)O)C(=O)O; experiment: DHFS assay of recombinant PfDHFS–FPGS ([14C]glutamate incorporation); assay type: biochemical; details: other: low co-substrate concentrations (ATP or glutamate ≤25 μM), Michaelis–Menten fit; 37.0 °C
# Protocol: as §1
# [8] = low substrate concentrations, 25 μM substrate, 25 μM ATP, 18 μM glutamate
molecule,measurement,setting,value
Nc1ncnc2c1ncn2[C@@H]1O[C@H](COP(=O)(O)OP(=O)(O)OP(=O)(O)O)[C@@H](O)[C@H]1O [ATP],Km,[1],22.8 µM
Nc1nc2c(c(=O)[nH]1)N=C(CNc1ccc(P(=O)(O)CC(CCC(=O)O)C(=O)O)cc1)CN2 (stereo not shown) [H2-1],Ki,[2],630 nM
same,IC50,[1],410 nM
same,Ki,[1],140 nM
same,potency for DHFS activity over FPGS activity,[1]; from Ki values,about 5 fold
"Nc1nc2ncc(CNc3ccc(P(=O)(O)CC(CCC(=O)O)C(=O)O)cc3)nc2c(=O)[nH]1 (stereo not shown) [compound 1, 2-[[[4-[N-[(2-amino-3,4-dihydro-4-oxo-6-pteridinyl)methyl]amino]phenyl](hydroxy)phosphinoyl]methyl]pentane-1,5-dioic acid]",strong inhibition of DHFS activity by the oxidised form,[1]; oxidised (unreduced) form,not its oxidised form
Nc1nc(=O)c2c([nH]1)NCC(CNc1ccc(C(=O)N[C@@H](CCC(=O)O)C(=O)O)cc1)N2C=O (mixture of isomers) [folinic acid],conversion to polyglutamylated forms in parasite cultures,[3],almost complete
"Nc1nc(=O)c2c([nH]1)NCC(CNc1ccc(C(=O)N[C@@H](CCC(=O)O)C(=O)O)cc1)=N2 [DHF, 7,8-dihydrofolate]",processing as substrate for polyglutamylation by FPGS activity (words),[2],very poor substrates
same,polyglutamylated forms of folate produced compared with that produced from THF,"[2]; high substrate concentrations, 100 μM substrate, 2 mM ATP, 200 μM glutamate",12%
same,processing as substrate for polyglutamylation by FPGS activity (words),[2]; listed as dihydrofolate,negligibly processed
same,polyglutamylated forms of folate produced compared with that produced from THF,[2]; [8],21%
"Nc1nc2c(c(=O)[nH]1)N=C(CNc1ccc(C(=O)O)cc1)CN2 [DHP, 7,8-dihydropteroate]",Km,[4],0.4 to 6 µM
same,DHP concentration at which DHFS activity peaked,"[1]; ATP 0.5 mM, glutamate up to ∼1 mM",1 to 2 µM
same,dissociation constant KA for the substrate binding (catalytic site),"[1]; best-fit model a (partial substrate inhibition, three substrates), ATP 6 μM to 5 mM, glutamate 25 μM to 1 mM, n = 15",0.50 µM
same,Kd,"[1]; best-fit model a, ATP 6 μM to 5 mM, glutamate 25 μM to 1 mM, n = 15, read-out: dissociation constant KABCA for the substrate (DHP) inhibition (inhibitory site)",1250 nM
same,DHP concentration above which substrate inhibition became significant,[1]; high ATP and glutamate,> 2 µM
same,Km,[1],0.88 µM
Nc1nc(=O)c2nc(CNc3ccc(C(=O)N[C@@H](CCC(=O)O)C(=O)O)cc3)cnc2[nH]1 [folic acid],processing as substrate for polyglutamylation by FPGS activity (words),[2],very poor substrates; also recorded: very low level of activity
same,processing as substrate for polyglutamylation by FPGS activity (words),[2]; listed as folate,negligibly processed
same,polyglutamylated forms of folate produced compared with that produced from THF,[2]; [8],insignificant
Nc1nc2c(c(=O)[nH]1)N=C(CNc1ccc(C(=O)N[C@@H](CCP(=O)(O)CC(CCC(=O)O)C(=O)O)C(=O)O)cc1)CN2 (stereo partly shown) [H2-2],IC50,[2],390 nM
same,Ki,[2],91 nM
same,potency for FPGS activity over DHFS activity,[2]; from Ki values,~20 fold
same,Ki,[1],1690 nM
"CN(Cc1cnc2nc(N)nc(N)c2n1)c1ccc(C(=O)N[C@@H](CCC(=O)O)C(=O)O)cc1 [MTX, methotrexate]",conversion to polyglutamylated forms in parasite cultures,[3],no polyglutamylated versions of MTX could be detected; also recorded: No polyglutamylated forms of MTX could be detected
same,accumulation (uptake and retention) in parasites,"[3]; equal initial label concentrations, 20 h",somewhat higher levels than folinic acid; also recorded: exceeded that of folinic acid
same,processing as substrate for polyglutamylation by FPGS activity (words),[2],negligibly processed; also recorded: not a substrate
same,inhibition of FPGS activity,"[2]; MTX up to 1.0 mM, THF 10 μM, ATP 5 mM, glutamate 275 μM",inhibited neither DHFS nor FPGS; also recorded: neither the DHFS nor FPGS activities showed any sensitivity
same,IC50,"[5]; Plasmodium falciparum, average for four different strains",~40 nM
same,effect on parasite growth at extremely low levels,[5]; around 1 nM,stimulatory effect on growth
same,inhibition of DHFS activity,"[1]; MTX up to 1.0 mM, DHP 10 μM, ATP 5 mM, glutamate 275 μM",inhibited neither DHFS nor FPGS; also recorded: neither the DHFS nor FPGS activities showed any sensitivity
"5,6,7,8-tetrahydrofolate [THF]",processing as substrate for polyglutamylation by FPGS activity (words),[2],efficiently converted to polyglutamylated forms
same,Km,[6],2 to 5 µM
PfDHFS–FPGS (DHFS activity) (Plasmodium falciparum 3D7) (protein) MEKNQNDKSNKNDIIHMNDKSGNYDKNNINNFIDKNDEHDMSDILHKINNEEKKYEEIKSYSECLELLYKTHALKLGLDNPKKLNESFGHPCDKYKTIHIAGTNGKGSVCYKIYTCLKIKKFKVGLFSSPHIFSLRERIIVNDEPISEKELIHLVNEVLNKAKKLYINPSFFEIITLVAFLHFLNKKVDYAIIETGIGGRLDATNILTKPEVIVITSIGYDHLNILGDNLPIICNEKIGIFKKDANVVIGPSVAIYKNVFDKAKELNCTIHTVVPEPRGERYNEENSRIALRTLEILNISIDYFLKSIIPIKPPLRIQYLATEQIQHIKKKFSPDNLEHNVQYPLAVILDVGHNETAIDRLCTDINYFHKGQNIRICISITKPRNLSVFHPFIAQFGDTLKDIFYLPSLNERTYDFEEIVEMLNNEEEIKNEIKELILSSSKKVGKWLAHEKQGNINEEDALKLYKRGCIPLIIKNAFLECCKDNSILLVCGTFFVFDEVLNVFDIHSDMQDTIFMNEPSLV,Km,[7],5.97 µM
